The values below come from ChEMBL document CHEMBL4673364, “Synthesis and cytotoxic activity of new 7-acetoxy-12-amino-14-deoxy andrographolide analogues” (Bioorg Med Chem Lett, 2021).

In assay [1] the test system is MCF7. Description: Potency index, ratio of andrographolide IC50 to test compound IC50 for cytotoxicity against human MCF7 cells. It counts as functional.
The subject of assay [2] is HT-29. The experiment in a line: Cytotoxicity against human HT-29 cells assessed as reduction in cell viability by SRB assay. It counts as functional, cell-based.
The subject of assay [3] is A549. The experiment in a line: Cytotoxicity against human A549 cells assessed as reduction in cell viability by SRB assay. Type of assay: functional, cell-based.
Assay [4] can be described thus: Cytotoxicity against human K055 cells assessed as reduction in cell viability by SRB assay. Type of assay: functional, cell-based. In general terms: In SRB staining, fixed cells bind dye roughly in proportion to their protein.
Assay [5] is described as follows: Cytotoxicity against human K213 cells assessed as reduction in cell viability by SRB assay. It counts as functional, cell-based.
Assay [6] is described as follows: Cytotoxicity against rat ASK cells assessed as reduction in cell viability by SRB assay. Type of assay: functional, cell-based.
Assay [7] relates to MCF7. Description: Cytotoxicity against human MCF7 cells assessed as reduction in cell viability by SRB assay. Type of assay: functional, cell-based.
The test system of assay [8] is KB. The experiment in a line: Cytotoxicity against human KB cells assessed as reduction in cell viability by SRB assay. It counts as functional, cell-based.
Assay [9] in a line: Cytotoxicity against human P388 cells assessed as reduction in cell viability by SRB assay. Type of assay: functional, cell-based.

For orientation: IC50 means the concentration at which inhibition is half-maximal.

For `C=C1[C@@H](OC(C)=O)C[C@@H]2[C@](C)(CO[Si](C)(C)C(C)(C)C)[C@H](OC(C)=O)CC[C@@]2(C)[C@@H]1C[C@@H](Nc1ccc(F)cc1)C1=CCOC1=O`, in [1], the “Ratio IC50” value is on record as 7. The IC50 in assay [2] amounted to 4.94 µM; in assay [3], 4.55 µM; in [4], 5.43 µM; in assay [5], 5.25 µM; in [6] it was 4.63 µM; in [7], 4.34 µM. Besides, the IC50 in assay [8] came out at 5.09 µM; in assay [9], 4 µM.
Consider `C=C1[C@@H](OC(C)=O)C[C@@H]2[C@](C)(COC=O)[C@H](OC(C)=O)CC[C@@]2(C)[C@@H]1C[C@@H](Nc1ccccc1C(=O)O)C1=CCOC1=O`, for which the IC50 in assay [2] was 28.7 µM; in assay [3], 45.9 µM; in [4] it was 40.4 µM; in [5] it was 42.6 µM; in [6], above 50 µM; in assay [7], 30.8 µM. The results for the IC50 in assay [8] and in assay [9] were 42.5 µM and 9.11 µM, respectively.
Regarding `Cc1c2ccncc2c(C)c2c1[nH]c1ccccc12` [ELLIPTECINE], the IC50 in assay [2] is 2.59 µM; in [3], 2.13 µM; in [4], 2.04 µM; in assay [5] it was 2.11 µM; in [6] it was 2.42 µM; in assay [7], 2.18 µM. In addition, the IC50 in [8] is 2.2 µM; in [9], 1.87 µM.
Turning to `C=C1[C@@H](OC(C)=O)C[C@@H]2[C@](C)(COC=O)[C@H](OC(C)=O)CC[C@@]2(C)[C@@H]1C[C@@H](Nc1ccc(C(=O)O)cc1)C1=CCOC1=O`, the IC50 in assay [2] was 37.2 µM; in assay [3], above 50 µM; in assay [4], 48.3 µM; in assay [5], above 50 µM; in assay [6], above 50 µM; in assay [7] it was 41.6 µM. Moreover, the IC50 is above 50 µM in assay [8] and 22.2 µM in assay [9].
For the compound `C=C1[C@@H](OC(C)=O)C[C@@H]2[C@](C)(COC=O)[C@H](OC(C)=O)CC[C@@]2(C)[C@@H]1C[C@@H](Nc1ccc(OC)cc1)C1=CCOC1=O`, the IC50 in assay [2] is 25.4 µM; in assay [3] it was 28.9 µM; in [4] it was 33.2 µM; in assay [5], 40.9 µM; in assay [6], above 50 µM; in [7], 24.2 µM. The IC50 in assay [8] worked out at 32.7 µM; in assay [9], 7.9 µM.
On to `C=C1[C@@H](OC(C)=O)C[C@@H]2[C@](C)(CO[Si](C)(C)C(C)(C)C)[C@H](OC(C)=O)CC[C@@]2(C)[C@@H]1C[C@@H](Nc1ccccc1C(=O)O)C1=CCOC1=O`, for which the “Ratio IC50” value in [1] is on record as 7. In addition, the IC50 in assay [2] stood at 5.34 µM; in assay [3], 4.89 µM; in assay [4], 5.64 µM; in assay [5], 5.91 µM; in assay [6] it was 4.31 µM; in assay [7], 4.46 µM. Besides, the IC50 came to 6.05 µM in [8] and 4.31 µM in [9].
With `C=C1[C@@H](OC(C)=O)C[C@@H]2[C@](C)(COC=O)[C@H](OC(C)=O)CC[C@@]2(C)[C@@H]1C[C@@H](Nc1ccc(O)cc1)C1=CCOC1=O`, the IC50 in [2] was found to be 13.4 µM; in [3], 29.1 µM; in assay [4], 28.6 µM; in assay [5], 27.1 µM; in [6], 24.2 µM; in [7], 18.1 µM. Further, the IC50 was found to be 28.9 µM in assay [8] and 4.4 µM in assay [9].
Regarding `C=C1[C@@H](OC(C)=O)C[C@@H]2[C@](C)(CO[Si](C)(C)C(C)(C)C)[C@H](OC(C)=O)CC[C@@]2(C)[C@@H]1C[C@@H](Nc1ccc(C(=O)O)cc1)C1=CCOC1=O`, the “Ratio IC50” value in assay [1] is 7. The half-inhibitory concentration (IC50) was 4.63 µM in assay [2]; 4.21 µM in assay [3]; 4.88 µM in assay [4]; 6.75 µM in assay [5]; 4.31 µM in [6]; 3.99 µM in [7]. In addition, the IC50 in assay [8] worked out at 5.54 µM; in assay [9], 4.18 µM.
Turning to `C=C1[C@@H](OC(C)=O)C[C@@H]2[C@](C)(CO[Si](C)(C)C(C)(C)C)[C@H](OC(C)=O)CC[C@@]2(C)[C@@H]1C[C@@H](Nc1ccc(OC)c(OC)c1)C1=CCOC1=O`, the IC50 in [2] came out at 5.33 µM; in assay [3] it was 4.87 µM; in assay [4], 5.73 µM; in assay [5] it was 5.15 µM; in assay [6], 4.95 µM; in assay [7], 4.31 µM. Further, the IC50 in assay [8] stood at 5.8 µM; in assay [9] it was 4.53 µM.
Regarding `C=C1[C@@H](OC(C)=O)C[C@@H]2[C@](C)(COC=O)[C@H](OC(C)=O)CC[C@@]2(C)[C@@H]1C[C@@H](Nc1ccc(OC)c(OC)c1)C1=CCOC1=O`, the IC50 in assay [2] was 42.8 µM; in assay [3], above 50 µM; in assay [4] it was 48.2 µM; in assay [5], above 50 µM; in assay [6] it was above 50 µM; in assay [7] it was above 50 µM. The IC50 in [8] was above 50 µM; in assay [9], 25.8 µM.
Regarding `C=C1[C@@H](OC(C)=O)C[C@@H]2[C@](C)(COC=O)[C@H](OC(C)=O)CC[C@@]2(C)[C@@H]1C[C@@H](Nc1ccc(F)cc1)C1=CCOC1=O`, the IC50 in [2] is 20.5 µM; in assay [3] it was 21.2 µM; in assay [4], 25.8 µM; in assay [5] it was 30.2 µM; in assay [6], 38.6 µM; in assay [7] it was 12.4 µM. Besides, the IC50 came to 22.9 µM in assay [8] and 6.31 µM in assay [9].
Turning to `C=C1[C@@H](OC(C)=O)C[C@@H]2[C@](C)(COC=O)[C@H](OC(C)=O)CC[C@@]2(C)[C@@H]1C[C@@H](Nc1cccc(F)c1)C1=CCOC1=O`, the IC50 was determined as 9.41 µM in assay [2]; 23.2 µM in assay [3]; 29.2 µM in assay [4]; 27.2 µM in assay [5]; 35.8 µM in assay [6]; 14.1 µM in [7]. For the same compound, the IC50 in assay [8] came out at 28.6 µM; in assay [9], 5.53 µM.
`C=C1[C@@H](OC(C)=O)C[C@@H]2[C@](C)(CO[Si](C)(C)C(C)(C)C)[C@H](OC(C)=O)CC[C@@]2(C)[C@@H]1C[C@@H](Nc1ccc(Br)cc1)C1=CCOC1=O`: the “Ratio IC50” value in assay [1] is reported as 7. Besides, the IC50 in assay [2] was found to be 4.59 µM; in assay [3] it was 4.15 µM; in [4], 5.34 µM; in assay [5], 5.44 µM; in assay [6], 4.84 µM; in assay [7], 3.92 µM. For the same compound, the IC50 in assay [8] turned out to be 5.23 µM; in assay [9] it was 4.19 µM.
As to `C=C1[C@@H](OC(C)=O)C[C@@H]2[C@](C)(CO[Si](C)(C)C(C)(C)C)[C@H](OC(C)=O)CC[C@@]2(C)[C@@H]1C[C@@H](Nc1cccc2ccccc12)C1=CCOC1=O`, the IC50 in assay [2] is 15 µM; in assay [3], 4.97 µM; in [4] it was 6.72 µM; in assay [5], 15.3 µM; in assay [6] it was 6.33 µM; in assay [7], 5.77 µM. Besides, the IC50 in assay [8] was 8.93 µM; in [9], 5.74 µM.
In the case of `C=C1[C@@H](C/C=C2/C(=O)OC[C@H]2OC(C)=O)[C@]2(C)CC[C@@H](OC(C)=O)[C@@](C)(CO[Si](C)(C)C(C)(C)C)[C@H]2C[C@@H]1O`, the IC50 in assay [2] was 9.31 µM; in assay [3], 6.85 µM; in [4], 19.9 µM; in [5], 24 µM; in assay [6], 5.97 µM; in assay [7] it was 6.96 µM. Further, the IC50 in assay [8] turned out to be 9.79 µM; in [9], 0.9 µM.
`C=C1[C@@H](OC(C)=O)C[C@@H]2[C@](C)(COC=O)[C@H](OC(C)=O)CC[C@@]2(C)[C@@H]1C[C@@H](Nc1ccccc1F)C1=CCOC1=O`: the IC50 in assay [2] stood at 9.76 µM; in assay [3], 23.6 µM; in [4], 30.3 µM; in assay [5], 31 µM; in [6], 31.6 µM; in assay [7] it was 16.4 µM. Besides, the IC50 in assay [8] is 29 µM; in assay [9], 5.97 µM.
With `C=C1[C@@H](OC(C)=O)C[C@@H]2[C@](C)(COC=O)[C@H](OC(C)=O)CC[C@@]2(C)[C@@H]1C/C=C1/C(=O)OC[C@H]1OC(C)=O`, the IC50 in assay [2] is 8.29 µM; in assay [3] it was 19 µM; in assay [4] it was 15.3 µM; in assay [5] it was 20.8 µM; in assay [6], 19.2 µM; in assay [7], 12.9 µM. The IC50 in [8] was 21.6 µM; in [9] it was 4.55 µM.
With `C=C1[C@@H](OC(C)=O)C[C@@H]2[C@](C)(COC=O)[C@H](OC(C)=O)CC[C@@]2(C)[C@@H]1C[C@@H](Nc1ccccc1)C1=CCOC1=O`, the IC50 in assay [2] worked out at 28.8 µM; in [3] it was 25.8 µM; in assay [4], 33.2 µM; in assay [5] it was 39.8 µM; in assay [6], 41 µM; in [7], 26.2 µM. In addition, the IC50 in assay [8] was 32.1 µM; in assay [9], 7.84 µM.
With `C=C1[C@@H](OC(C)=O)C[C@@H]2[C@](C)(COC=O)[C@H](OC(C)=O)CC[C@@]2(C)[C@@H]1C[C@@H](Nc1ccc(Br)cc1)C1=CCOC1=O`, the IC50 in [2] is 13.2 µM; in assay [3], 15.8 µM; in assay [4] it was 24.4 µM; in assay [5], 25.4 µM; in assay [6], 49.9 µM; in assay [7] it was 11.4 µM. The IC50 in assay [8] amounted to 24 µM; in assay [9] it was 4.95 µM.
Take `C=C1[C@@H](OC(C)=O)C[C@@H]2[C@](C)(CO[Si](C)(C)C(C)(C)C)[C@H](OC(C)=O)CC[C@@]2(C)[C@@H]1C[C@@H](Nc1ccccc1F)C1=CCOC1=O`: in assay [1], the “Ratio IC50” value was 7. In addition, the IC50 in [2] was 3.71 µM; in assay [3] it was 3.19 µM; in assay [4] it was 5.19 µM; in assay [5], 5.45 µM; in assay [6], 3.69 µM; in [7] it was 2.93 µM. Also, the IC50 in assay [8] is 4.74 µM; in [9], 3.14 µM.
